Read-outs that look alike come from different tables or passages of the source.
Key:
[1] = tested on: cancer cell lines classified IM, MSL, M; assay: PRISM screen compound sensitivity correlated with IM, MSL and M subtype of cell lines (101 gene signature); assay type: cell-based; details: for TNBCType train: training cell set (371 cell lines), 101 gene signature
[2] = tested on: cancer cell lines, DetermaIO classes; assay: Association of PRISM compound sensitivity with DetermaIO (DTIO) cell line classes; assay type: cell-based
[3] = correlation of PRISM compound sensitivity with IM subtype correlation, test cell set (188 cell lines)
[4] = correlation of PRISM compound sensitivity with M subtype correlation, test cell set (188 cell lines)
[5] = correlation of PRISM compound sensitivity with MSL subtype correlation, test cell set (188 cell lines)
[6] = correlation of PRISM compound sensitivity with DTIO (DetermaIO), test cell set (188 cell lines)
[7] = correlation of PRISM compound sensitivity with DTIO (DetermaIO), training cell set (371 cell lines)
[8] = subtype (IM, MSL or M) the PRISM compound sensitivity is associated with
[9] = correlation of PRISM compound sensitivity with DTIO, test cell set (188 cell lines)
[10] = correlation of PRISM compound sensitivity with DTIO, training cell set (371 cell lines)
[11] = subtype (IM, MSL or M) with which compound sensitivity is negatively correlated
[12] = correlation of PRISM compound sensitivity with DTIO, test cell set
[13] = correlation of PRISM compound sensitivity with DTIO, training cell set

## CC[C@H](C)[C@@H]([C@@H](CC(=O)N1CCC[C@H]1[C@H](OC)[C@@H](C)C(=O)N[C@@H](Cc1ccccc1)c1nccs1)OC)N(C)C(=O)[C@@H](NC(=O)[C@H](C(C)C)N(C)C)C(C)C [dolastatin-10]
[1]; [3]
  IM Corr test: −0.05477
[1]; [4]
  M Corr test: 0.003299
[1]; [5]
  MSL Corr test: −0.00011
[1]; subtype (IM, MSL or M) assigned to the compound by negative correlation of PRISM sensitivity with subtype
  TNBCType train: MSL
[2]; [6]
  DTIO Corr test: −0.08086
[2]; [7]
  DTIO Corr train: −0.07579

## C[C@H](N[C@@H](CCc1ccccc1)C(=O)O)C(=O)N1CCC[C@H]1C(=O)O [enalaprilat]
[1]; [3]
  IM Corr test: 0.03404
[1]; [4]
  M Corr test: −0.06381
[1]; [5]
  MSL Corr test: −0.1038
[1]; [8]
  TNBCType train: MSL
[2]; [9]
  DTIO Corr test: −0.03184
[2]; [10]
  DTIO Corr train: 0.0604

## C=C1C[C@@H]2[C@H](CC[C@]3(C)C(=O)CC[C@@H]23)[C@@]2(C)C=CC(=O)C=C12 [exemestane]
[1]
  IM Corr test: 0.07921
  M Corr test: −0.1056
  MSL Corr test: −0.04525
[2]
  DTIO Corr test: 0.03291
  DTIO Corr train: 0.03081

## CCC(O)(c1ccccc1)c1cccc(C(F)(F)F)c1 (stereo not shown) [flumecinol]
[1]; [3]
  IM Corr test: 0.06404
[1]; [4]
  M Corr test: −0.06491
[1]; [5]
  MSL Corr test: −0.09398
[1]; [11]
  TNBCType train: MSL
[2]; [12]
  DTIO Corr test: 0.03786
[2]; [13]
  DTIO Corr train: 0.02706

## OCCN1CCN(CC/C=C2/c3ccccc3Sc3ccc(C(F)(F)F)cc32)CC1 [flupentixol]
[1]; [3]
  IM Corr test: −0.05449
[1]; [4]
  M Corr test: 0.1086
[1]; [5]
  MSL Corr test: 0.1536
[2]; [6]
  DTIO Corr test: −0.04775
[2]; [7]
  DTIO Corr train: −0.1041

## C[C@H](C(=O)O)c1ccc(-c2ccccc2)c(F)c1 [flurbiprofen-(S)-(+)]
[1]; [3]
  IM Corr test: −0.0194
[1]; [4]
  M Corr test: 0.01889
[1]; [5]
  MSL Corr test: 0.02942
[2]; [6]
  DTIO Corr test: −0.0319
[2]; [7]
  DTIO Corr train: −0.04195

## CNC(=O)CN(CCN(CCN(CC(=O)[O-])CC(=O)NC)CC(=O)[O-])CC(=O)[O-].[Gd+3] [gadodiamide]
[1]; correlation of PRISM compound sensitivity with IM subtype correlation, test cell set
  IM Corr test: −0.07426
[1]; correlation of PRISM compound sensitivity with M subtype correlation, test cell set
  M Corr test: 0.04886
[1]; correlation of PRISM compound sensitivity with MSL subtype correlation, test cell set
  MSL Corr test: −0.03759
[2]; [12]
  DTIO Corr test: −0.0433
[2]; [13]
  DTIO Corr train: −0.1128

## CC(O)CN1CCN(CC(=O)[O-])CCN(CC(=O)[O-])CCN(CC(=O)[O-])CC1.[Gd+3] (stereo not shown) [gadoteridol]
[1]; [3]
  IM Corr test: −0.02624
[1]; [4]
  M Corr test: −0.02135
[1]; [5]
  MSL Corr test: −0.00929
[1]; [11]
  TNBCType train: MSL
[2]; [12]
  DTIO Corr test: −0.08228
[2]; [13]
  DTIO Corr train: −0.04116

## CC(C)=CCC[C@](C)(O[C@@H]1O[C@H](CO)[C@@H](O)[C@H](O)[C@H]1O)[C@H]1CC[C@]2(C)[C@@H]1[C@H](O)C[C@@H]1[C@@]3(C)CC[C@H](O[C@@H]4O[C@H](CO)[C@@H](O)[C@H](O)[C@H]4O[C@@H]4O[C@H](CO)[C@@H](O)[C@H](O)[C@H]4O)C(C)(C)[C@@H]3CC[C@]12C [ginsenoside-rd]
[1]
  IM Corr test: −0.05744
  M Corr test: −0.00784
  MSL Corr test: −0.02352
[1]; [11]
  TNBCType train: MSL
[2]
  DTIO Corr test: −0.0392
  DTIO Corr train: −0.02011

## CC(C)=CCC[C@](C)(O)[C@H]1CC[C@]2(C)[C@@H]1[C@H](O)C[C@@H]1[C@@]3(C)CC[C@H](O[C@@H]4O[C@H](CO)[C@@H](O)[C@H](O)[C@H]4O[C@@H]4O[C@H](CO)[C@@H](O)[C@H](O)[C@H]4O)C(C)(C)[C@@H]3CC[C@]12C [ginsenoside-rg3]
[1]; [3]
  IM Corr test: 0.007852
[1]; [4]
  M Corr test: −0.05841
[1]; [5]
  MSL Corr test: −0.02955
[2]; [12]
  DTIO Corr test: −0.00056
[2]; [13]
  DTIO Corr train: 0.0566

## CC(C)C[C@H](NC(=O)CNC(=O)[C@H](Cc1ccc(O)cc1)NC(=O)[C@H](CO)NC(=O)[C@H](Cc1c[nH]c2ccccc12)NC(=O)[C@H](Cc1cnc[nH]1)NC(=O)[C@@H]1CCC(=O)N1)C(=O)N[C@@H](CCCNC(=N)N)C(=O)N1CCC[C@H]1C(=O)NCC(N)=O [gonadorelin]
[1]; [3]
  IM Corr test: −0.1061
[1]; [4]
  M Corr test: −0.01145
[1]; [5]
  MSL Corr test: −0.1224
[1]; [8]
  TNBCType train: MSL
[2]; [9]
  DTIO Corr test: −0.06774
[2]; [10]
  DTIO Corr train: −0.05189

Source: US20250140406A1, “CLASSIFYING TUMORS AND PREDICTING RESPONSIVENESS” (Oncocyte Corporation, priority 2022, published 2025)
